Test results published in patent US20220160815A1, “PEPTIDES AND USES THEREOF” (LATERAL IP PTY LTD, priority 2019, published 2022).
Values joined by “and” are separate entries in the source; they are usually repeats but may differ in a detail not shown here. Equal entries are not always repeated.

Columns and labels:
Format in all cases: in vivo, human
migraine [1] = assay: Case study 4: LAT8881 injected into the right greater occipital nerve during a migraine attack; details: 0.4 mg injected into right greater occipital nerve
Protocol: The subject was a person that suffers from migraines and occipital neuralgia. The subject presented with bilateral tenderness of both occipital nerve sites and bilateral headaches, bitemporally and behind the eyes, all indicative of a migraine attack.
Dosage: 0.4 mg of LAT8881 (SEQ ID NO:2) injected into the right greater occipital nerve.

migraine [2] = assay: Case studies 1-3: oral LAT8881 capsules taken during a migraine attack, self-rated pain and nausea
migraine headache = assay: Randomised, placebo-controlled, double-blind, crossover proof of concept study of oral LAT8881 in acute migraine headache; details: 60 mg oral
Source text: The primary objective of this study was to evaluate the effect of oral LAT8881 on migraine headache compared with placebo, when assessed by the headache severity on an 11-point Numeric Rating Scale (NRS).
The secondary objectives of this study included: • a) to evaluate the effect of oral LAT8881 on migraine-associated symptoms compared with placebo, when assessed by the change in symptoms based on a 11-point Likert scale; • b) to investigate the percentage of subjects achieving “no headache pain” following treatment with oral LAT8881 compared with placebo at any time-point to 8 hours post dose, with no use of rescue medication; and • c) to evaluate the safety and tolerability of single doses of oral LAT8881 in subjects with migraine headache.
This was a randomised, placebo-controlled, double-blind, crossover, Phase Ha proof of concept study to investigate the efficacy and safety of oral LAT8881 (SEQ ID NO:2) in acute migraine headache with or without aura.
Subjects entered into the study were randomised to receive IMP (LAT8881; 60 mg or placebo), taken at the onset (within one hour from the onset of pain) of a migraine headache of moderate to severe intensity [Numeric rating scale (NRS)≥4]. Subjects were advised not to take rescue medication until at least 2 hours post dose with LAT8881. Subjects were given one dose of IMP (2 capsules), to treat one migraine headache.
After treatment of one migraine headache (or a maximum 28 days), the subject was asked to return to the clinic for re-evaluation and crossover to the second treatment. In the second treatment period, subjects were asked to take IMP in the same manner as in treatment period 1.
Subjects entered into the study were randomised to receive IMP (LAT8881; 60 mg or placebo; orally), to be taken at the onset (within one hour from the onset of pain) of a migraine headache of moderate to severe intensity.
Primary efficacy endpoints included a change in migraine headache pain score, using an 11-point NRS, (0=none, 10=worst imaginable), from the time of dosing to 0.5, 1.0, 1.5, 2, 4, 8 and 24 hours post dose. Pain was recorded in the subject' diary and was expected to reflect the subject's pain at the time of recording.
Secondary efficacy endpoints included: • a) Change in migraine-associated symptoms of nausea, photophobia and phonophobia. Symptoms were assessed on an 11-point Likert scale with 0=no symptoms and 10 being severe symptoms at time of dosing and at 0.5, 1.0, 1.5, 2, 4, 8 and 24 hours post dose; • b) Change in each subject's most troublesome symptom that may include nausea, photophobia and phonophobia cognitive impairment, dizziness and functional disability. Symptoms were assessed on an 11-point Likert scale with 0=no symptoms and 10 being severe symptoms at time of dosing and at 0.5, 1.0, 1.5, 2, 4, 8 and 24 hours post dose; and • c) The percentage of subjects achieving “no headache pain” at 0.5, 1.0, 1.5, 2, 4 and 8 hours post dose.
Post-hoc analyses were undertaken to assess the responder rate at each time point after dose of IMP. Two classifications of responder were defined: at least 30% change from baseline in NRS score and an NRS score of less than or equal to 3 at the post dose time points. After unblinding, it was discovered that one subject had recorded a pre-dose NRS score of 2 in period 1, a major protocol deviation as the instructions were to take IMP within one hour of the onset of a migraine headache of moderate to severe intensity (NRS>=4). This subject's data for this period was excluded. The responder rate for each treatment and difference between LAT8881 and placebo (95% confidence interval) at each time point are provided in Table 2, below (P1=Period 1; P2=Period 2; Photo=Photophobia; Phono=Phonophobia). FIGS. 1-4 show selected examples of NSR Pain Scores of subjects that completed the study and who received treatment with either placebo or with LAT8881 (SEQ ID NO:2; 60 mg per dose, orally).

[3] = Case Study 2, 1 mg, 4 hours after dosing, 8 out of 10 at time of dosing
[4] = 2 subjects menstruating at the time of the migraine, NRS pain score
[5] = of the 15 subjects who completed the study
[6] = subjects who showed a benefit, NRS pain score
[7] = subjects who were slightly worse, NRS pain score

With “YLRIVQCRSVEGSCGF (listed as Homo sapiens) [LAT8881, C-terminal fragment of human growth hormone (hGH) spanning amino acid residues 178-192, with an additional tyrosine residue at the N-terminus]” the “migraine pain reported by subject” value (migraine [1]; Case Study 4, migraines and occipital neuralgia, within ten minutes) was “pain-free”, the “other effects reported by subject” value (migraine [1]; Case Study 4) was “mental clarity and loss of brain fog” and the “tenderness over the occipital nerve” value (migraine [1]; Case Study 4, within ten minutes, bilateral tenderness at presentation) was “no tenderness on either side over the occipital nerve”. For the same sequence, the migraine pain rating (migraine [2]; Case Study 1, 1 mg (four 0.25 mg capsules), an hour after dosing, 8 out of 10 at time of dosing) was 7 out of 10, the nausea rating (migraine [2]; Case Study 1, 1 mg, 4 hours after dosing, 7 out of 10 at time of dosing) was 3 out of 10 and the migraine pain rating (migraine [2]; Case Study 1, 1 mg, 4 hours after dosing, 8 out of 10 at time of dosing) was 6 out of 10. For the same sequence, the nausea rating (migraine [2]; Case Study 1, 1 mg, an hour after dosing, 7 out of 10 at time of dosing) was 5 out of 10, the “migraine recurrence after dosing” value (migraine [2]; Case Study 1, 1 mg, subject averages about one migraine per month) was “No migraine was reported in the following month” and the migraine pain rating (migraine [2]; Case Study 2, 1 mg (two 0.5 mg capsules), an hour after dosing, 8 out of 10 at time of dosing) was 2 out of 10. For the same sequence, the migraine pain rating (migraine [2]; [3]) was 1 out of 10, the nausea rating (migraine [2]; [3]) was 1 out of 10 and the nausea rating (migraine [2]; Case Study 2, 1 mg, an hour after dosing, 8 out of 10 at time of dosing) was 2 out of 10. The “migraine recurrence after dosing” value (migraine [2]; Case Study 2, 1 mg, subject averages about two migraines per month) was “No migraines reported in the following two months”, the nausea rating (migraine [2]; Case Study 3, 0.5 mg, overnight, 0 out of 10 at time of dosing) was 0 out of 10 and the “migraine recurrence after dosing” value (migraine [2]; Case Study 3, 0.5 mg, subject has migraines once every 3-6 months) was “No migraines reported in the following three months”. For the same sequence, the “average score reduction in menstruating subjects” value (migraine headache; [4]) was 6, the “range of score reduction in menstruating subjects” value (migraine headache; [4]) was 10 to 2 and the “Nausea change 2 hrs LAT8881” value (migraine headache; 11-point Likert scale, individual subjects) was 0 (2×) and −5 (2×) and −10 and 1 and −1 (4×) and −2 (2×) and 2 and −8 and 3 and −3 and 6. The “LAT8881 pain score at 2 hours” value (migraine headache; 11-point NRS (0=none, 10=worst imaginable), individual subjects) was 2 and 1 and 0 and 5 (2×) and 8 (3×) and 6 (4×) and 3 (2×) and 4 and 7 and 9, the “Responder rate (95% CI), 30% change from baseline” value (migraine headache; 30 minutes post dose) was 0 and the “Responder rate (95% CI), NRS Score <= 3” value (migraine headache; 30 minutes post dose) was 0. The “Count/Total, NRS Score <= 3” value (migraine headache; 30 minutes post dose, responder = NRS score of less than or equal to 3) was 0/16, the “Count/Total, 30% change from baseline” value (migraine headache; 30 minutes post dose, responder = at least 30% change from baseline in NRS score) was 0/16 and the “Count/Total, 30% change from baseline” value (migraine headache; 1 hour post dose) was 2/16. For the same sequence, the “Count/Total, NRS Score <= 3” value (migraine headache; 1 hour post dose) was 1/16, the “Responder rate (95% CI), 30% change from baseline” value (migraine headache; 1 hour post dose) was 12.50 and the “Responder rate (95% CI), 30% change from baseline, difference LAT8881 60 mg-Placebo” value (migraine headache; 1 hour post dose) was 12.5 (−3.7, 28.7). For the same sequence, the “Responder rate (95% CI), NRS Score <= 3” value (migraine headache; 1 hour post dose) was 6.25, the “Responder rate (95% CI), NRS Score <= 3, difference LAT8881 60 mg-Placebo” value (migraine headache; 1 hour post dose) was 0 (−16.77, 16.77) and the “Count/Total, 30% change from baseline” value (migraine headache; 1.5 hours post dose) was 3/16. For the same sequence, the “Count/Total, NRS Score <= 3” value (migraine headache; 1.5 hours post dose) was 3/16, the “Responder rate (95% CI), 30% change from baseline” value (migraine headache; 1.5 hours post dose) was 18.75 and the “Responder rate (95% CI), 30% change from baseline, difference LAT8881 60 mg-Placebo” value (migraine headache; 1.5 hours post dose) was 12.5 (−10, 35). For the same sequence, the “Responder rate (95% CI), NRS Score <= 3” value (migraine headache; 1.5 hours post dose) was 18.75, the “Responder rate (95% CI), NRS Score <= 3, difference LAT8881 60 mg-Placebo” value (migraine headache; 1.5 hours post dose) was 12.5 (−10, 35) and the “subjects menstruating at the time of the migraine who benefited” value (migraine headache; 2 hours) was 2 out of 2. The “Count/Total, 30% change from baseline” value (migraine headache; 2 hours post dose) was 8/16, the “Count/Total, NRS Score <= 3” value (migraine headache; 2 hours post dose) was 5/16 and the “Responder rate (95% CI), 30% change from baseline” value (migraine headache; 2 hours post dose) was 50.00. For the same sequence, the “Responder rate (95% CI), 30% change from baseline, difference LAT8881 60 mg-Placebo” value (migraine headache; 2 hours post dose) was 18.75 (−14.66, 52.16), the “Responder rate (95% CI), NRS Score <= 3” value (migraine headache; 2 hours post dose) was 31.25 and the “Responder rate (95% CI), NRS Score <= 3, difference LAT8881 60 mg-Placebo” value (migraine headache; 2 hours post dose) was 25 (-0.62, 50.62). The “Count/Total, 30% change from baseline” value (migraine headache; 4 hours post dose) was 8/16, the “Count/Total, NRS Score <= 3” value (migraine headache; 4 hours post dose) was 5/16 and the “Responder rate (95% CI), 30% change from baseline” value (migraine headache; 4 hours post dose) was 50.00. For the same sequence, the “Responder rate (95% CI), 30% change from baseline, difference LAT8881 60 mg-Placebo” value (migraine headache; 4 hours post dose) was 0 (−34.65, 34.65), the “Responder rate (95% CI), NRS Score <= 3” value (migraine headache; 4 hours post dose) was 31.25 and the “Responder rate (95% CI), NRS Score <= 3, difference LAT8881 60 mg-Placebo” value (migraine headache; 4 hours post dose) was −6.25 (-39.09, 26.59). The “Count/Total, 30% change from baseline” value (migraine headache; 8 hours post dose) was 14/16, the “Count/Total, NRS Score <= 3” value (migraine headache; 8 hours post dose) was 13/16 and the “Responder rate (95% CI), 30% change from baseline” value (migraine headache; 8 hours post dose) was 87.50. For the same sequence, the “Responder rate (95% CI), 30% change from baseline, difference LAT8881 60 mg-Placebo” value (migraine headache; 8 hours post dose) was 25 (−3.73, 53.73), the “Responder rate (95% CI), NRS Score <= 3” value (migraine headache; 8 hours post dose) was 81.25 and the “Responder rate (95% CI), NRS Score <= 3, difference LAT8881 60 mg-Placebo” value (migraine headache; 8 hours post dose) was 25 (−5.93, 55.93). For the same sequence, the “Count/Total, 30% change from baseline” value (migraine headache; 24 hours post dose) was 16/16, the “Count/Total, NRS Score <= 3” value (migraine headache; 24 hours post dose) was 15/16 and the “Responder rate (95% CI), 30% change from baseline” value (migraine headache; 24 hours post dose) was 100.00. The “Responder rate (95% CI), 30% change from baseline, difference LAT8881 60 mg-Placebo” value (migraine headache; 24 hours post dose) was 12.5 (−3.7, 28.7), the “Responder rate (95% CI), NRS Score <= 3” value (migraine headache; 24 hours post dose) was 93.75 and the “Responder rate (95% CI), NRS Score <= 3, difference LAT8881 60 mg-Placebo” value (migraine headache; 24 hours post dose) was 6.25 (−13.83, 26.33). For the same sequence, the “LAT8881 change from baseline” value (migraine headache; NRS pain score, predose to 2 hours, individual subjects) was −3 (3×) and −5 and −10 and 1 (3×) and 2 (2×) and −4 (2×) and −2 (3×) and −1 and 0, the “Most Troublesome, change 2 hrs LAT8881” value (migraine headache; most troublesome symptom, 11-point Likert scale, individual subjects) was −5 (3×) and −10 and 3 (3×) and 0 (4×) and −4 and 1 and −2 (3×) and −1 and the “number of subjects slightly worse at 2 hours” value (migraine headache; [5]) was 5. For the same sequence, the “number of subjects unchanged at 2 hours” value (migraine headache; [5]) was 1, the “number of subjects whose pain had reduced to 3 or less after 2 hours” value (migraine headache; [5]) was 4 and the “number of subjects who showed a benefit at 2 hours” value (migraine headache; of the 15 subjects who completed the study, NRS pain score) was 9. For the same sequence, the “Phono change at 2 hrs LAT8881” value (migraine headache; phonophobia, 11-point Likert scale, individual subjects) was 0 (9×) and −7 and 4 and 2 (2×) and −4 and −1 and −2 and 3, the “Photo change at 2 hrs LAT8881” value (migraine headache; photophobia, 11-point Likert scale, individual subjects) was 0 (3×) and −2 (5×) and −7 and 1 (4×) and −6 (2×) and −4 and the “pain score reduction in the subject menstruating at the time of each treatment” value (migraine headache; placebo led to an increase of 3 in the same subject) was 2. The “median benefit at 2 hours” value (migraine headache; [6]) was 3, the “range of benefit at 2 hours” value (migraine headache; [6]) was 1-10 and the “median increase at 2 hours” value (migraine headache; [7]) was 2. For the same sequence, the “range of increase at 2 hours” value (migraine headache; [7]) was 1-2.
